This passage reports IC90 results from patent US20230013602A1, “NOVEL IMIDAZOPYRAZINE DERIVATIVES” (Hoffmann-La Roche Inc., priority 2018, published 2023).

Experiment [1] concerns Acinetobacter baumannii ATCC 17978. The experiment can be described thus: Antimicrobial susceptibility testing, 90% growth inhibitory concentration (IC90) determination. The settings on record: Acinetobacter baumannii ATCC17978, Iso-Sensitest broth, OD 600 nm over 16 h. Type of experiment: cell-based. In short, it runs like this: (§1)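 Twofold dilutions (e.g. 50 to 0.097 μM final) in Iso-Sensitest broth, inoculum ~5×10^(5) CFU/ml, incubated at 35+2 °C. OD600 read every 20 min over 16 h; IC90 taken from growth inhibition during logarithmic phase.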

Experiment [2] deals with Acinetobacter baumannii ATCC17961. Described as above. Particulars: 90% growth inhibitory concentration, Acinetobacter baumannii ATCC17961, Iso-Sensitest broth, OD 600 nm over 16 h; read-out: ATCC17961 IC90. It counts as cell-based. In short, it runs like this: as §1

As usually defined, the IC90 is the point of the concentration-response curve where the effect stands at 90%.

With `CCc1cc(Nc2nccn3c(-c4ccc(OC)c(F)c4F)cnc23)ccc1C(=O)NC1CCC1N` (stereo not shown) [Example 39, N-(2-aminocyclobutyl)-4-[[3-(2,3-difluoro-4-methoxyphenyl)imidazo[1,2-a]pyrazin-8-yl]amino]-2-ethylbenzamide], the results for the 90% effect concentration (IC90) in experiment [1] and in experiment [2] were 0.29 µM and 0.288 µM, respectively.

`COc1ccc(-c2cnc3c(Nc4ccc(C(=O)N(C)CCC(=O)N5CCNCC5)c(C)c4)nccn23)cc1F` [Reference Example 10, 4-[[3-(3-fluoro-4-methoxy-phenyl)imidazo[1,2-a]pyrazin-8-yl]amino]-N,2-dimethyl-N-(3-oxo-3-piperazin-1-yl-propyl)benzamide]: the IC90 in experiment [1] and in experiment [2] was 0.29 µM each time.
